Like-named read-outs stand apart in the source and are kept apart here.
Assays:
[1] = molecular target: protein kinase C alpha (Homo sapiens, UniProt P17252); test: PKC Enzyme assay, alpha isozyme; assay type: biochemical
Protocol: (§1) PKC enzymes=alpha, beta I, beta II, gamma, delta, epsilon, eta and zeta.
(§2) Assay components in a total volume of 250 μL are the following:
(§3) Vesicles consisting of 120 μg/mL phosphatidylserine (Avanti Polar Lipids) and sufficient diacylglycerol (Avanti Polar Lipids) to activate the enzyme to maximum activity in 20 mM HEPES buffer (Sigma, St. Louis, Mo.), pH 7.5, 940 μM calcium chloride (Sigma, St. Louis, Mo.) for assaying the alpha, beta I, beta II and gamma enzyme only, 1 mM EGTA for all the enzymes, 10 mM magnesium chloride (Sigma, St. Louis, Mo.) and 30 μM (gamma-32P) ATP (DuPont). For all the enzymes either histone type HL (Worthington) or myelin basic protein is used as substrate. The assay is started by addition of protein kinase C enzyme incubated at 30° C. for 10 minutes and stopped by adding 0.5 mL of cold trichloroacetic acid (Amresco) followed by 100 μL of 1 mg/mL bovine serum albumin (Sigma, St. Louis, Mo.). The precipitate is collected by vacuum filtration on glass fiber filters employing a TOMTEC™ filtration system and quantified by counting in a beta scintillation counter.

[2] = molecular target: protein kinase C eta (Homo sapiens, UniProt P24723); test: PKC Enzyme assay, eta isozyme; assay type: biochemical; conditions: PKC eta; 30 μM ATP, 30° C., 10 minutes; read-out: IC50 η
Chain of protein kinase C eta (P24723 whole entry): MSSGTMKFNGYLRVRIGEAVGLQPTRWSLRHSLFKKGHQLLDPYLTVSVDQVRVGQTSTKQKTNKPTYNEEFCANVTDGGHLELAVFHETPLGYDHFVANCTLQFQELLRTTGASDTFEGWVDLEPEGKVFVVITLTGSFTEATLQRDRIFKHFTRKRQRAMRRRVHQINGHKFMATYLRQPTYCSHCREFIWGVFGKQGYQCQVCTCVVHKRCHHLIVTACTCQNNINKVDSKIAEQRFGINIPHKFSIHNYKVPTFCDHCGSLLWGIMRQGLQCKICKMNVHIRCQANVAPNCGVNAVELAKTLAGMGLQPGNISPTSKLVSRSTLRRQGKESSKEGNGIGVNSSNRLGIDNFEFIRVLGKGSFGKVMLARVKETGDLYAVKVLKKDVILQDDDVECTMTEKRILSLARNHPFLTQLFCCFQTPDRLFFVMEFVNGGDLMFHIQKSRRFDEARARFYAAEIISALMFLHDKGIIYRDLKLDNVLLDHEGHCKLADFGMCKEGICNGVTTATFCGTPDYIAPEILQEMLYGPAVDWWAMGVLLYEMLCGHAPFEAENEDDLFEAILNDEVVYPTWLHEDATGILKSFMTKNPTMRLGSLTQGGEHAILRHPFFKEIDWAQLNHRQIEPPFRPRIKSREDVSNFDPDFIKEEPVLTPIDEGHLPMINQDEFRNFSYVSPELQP
Protocol: as §1, §2, §3

[3] = molecular target: T1, protein kinase C epsilon (Homo sapiens, UniProt Q02156); test: PKC Enzyme assay, epsilon isozyme; assay type: biochemical
T1 sequence (Q02156 1-737): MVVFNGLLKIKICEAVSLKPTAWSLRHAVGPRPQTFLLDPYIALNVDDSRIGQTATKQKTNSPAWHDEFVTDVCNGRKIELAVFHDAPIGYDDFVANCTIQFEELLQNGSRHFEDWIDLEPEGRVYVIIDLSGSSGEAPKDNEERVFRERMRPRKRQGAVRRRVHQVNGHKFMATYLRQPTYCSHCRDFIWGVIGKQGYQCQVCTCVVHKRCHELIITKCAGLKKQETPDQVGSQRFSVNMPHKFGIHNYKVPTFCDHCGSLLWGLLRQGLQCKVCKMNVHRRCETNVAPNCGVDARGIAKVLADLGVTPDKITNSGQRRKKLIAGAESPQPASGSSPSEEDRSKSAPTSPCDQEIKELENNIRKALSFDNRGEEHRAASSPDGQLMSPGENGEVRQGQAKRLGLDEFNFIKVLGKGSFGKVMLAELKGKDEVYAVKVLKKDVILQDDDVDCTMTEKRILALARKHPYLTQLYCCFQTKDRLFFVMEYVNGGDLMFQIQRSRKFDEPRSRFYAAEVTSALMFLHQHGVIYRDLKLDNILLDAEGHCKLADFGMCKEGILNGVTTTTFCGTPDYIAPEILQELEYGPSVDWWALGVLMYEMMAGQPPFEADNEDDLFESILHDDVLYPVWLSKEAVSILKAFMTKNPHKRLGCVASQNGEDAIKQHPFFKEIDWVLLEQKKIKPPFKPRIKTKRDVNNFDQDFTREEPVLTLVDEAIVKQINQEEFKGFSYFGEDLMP
Protocol: as §1, §2, §3

[4] = molecular target: T2, protein kinase C zeta (Homo sapiens, UniProt Q05513); test: PKC Enzyme assay, zeta isozyme; assay type: biochemical
T2 sequence (Q05513 1-592): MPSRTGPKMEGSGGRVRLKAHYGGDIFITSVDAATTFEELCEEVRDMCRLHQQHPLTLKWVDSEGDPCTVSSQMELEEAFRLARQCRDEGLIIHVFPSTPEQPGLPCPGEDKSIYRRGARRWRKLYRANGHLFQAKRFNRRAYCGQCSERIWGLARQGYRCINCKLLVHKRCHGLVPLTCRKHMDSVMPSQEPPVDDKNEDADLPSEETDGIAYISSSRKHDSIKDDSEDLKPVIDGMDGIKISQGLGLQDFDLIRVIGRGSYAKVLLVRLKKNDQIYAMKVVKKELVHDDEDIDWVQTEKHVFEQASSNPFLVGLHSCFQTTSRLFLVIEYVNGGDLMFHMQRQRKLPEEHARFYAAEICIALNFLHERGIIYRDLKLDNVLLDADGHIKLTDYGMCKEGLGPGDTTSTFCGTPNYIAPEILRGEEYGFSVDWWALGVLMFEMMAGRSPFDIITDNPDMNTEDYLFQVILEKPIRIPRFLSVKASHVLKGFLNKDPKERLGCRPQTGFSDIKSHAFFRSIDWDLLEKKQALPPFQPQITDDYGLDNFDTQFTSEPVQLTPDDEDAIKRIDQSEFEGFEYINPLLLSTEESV
Protocol: as §1, §2, §3

[5] = molecular target: protein kinase C delta (Homo sapiens, UniProt Q05655); test: biochemical
Chain of protein kinase C delta (Q05655 whole entry): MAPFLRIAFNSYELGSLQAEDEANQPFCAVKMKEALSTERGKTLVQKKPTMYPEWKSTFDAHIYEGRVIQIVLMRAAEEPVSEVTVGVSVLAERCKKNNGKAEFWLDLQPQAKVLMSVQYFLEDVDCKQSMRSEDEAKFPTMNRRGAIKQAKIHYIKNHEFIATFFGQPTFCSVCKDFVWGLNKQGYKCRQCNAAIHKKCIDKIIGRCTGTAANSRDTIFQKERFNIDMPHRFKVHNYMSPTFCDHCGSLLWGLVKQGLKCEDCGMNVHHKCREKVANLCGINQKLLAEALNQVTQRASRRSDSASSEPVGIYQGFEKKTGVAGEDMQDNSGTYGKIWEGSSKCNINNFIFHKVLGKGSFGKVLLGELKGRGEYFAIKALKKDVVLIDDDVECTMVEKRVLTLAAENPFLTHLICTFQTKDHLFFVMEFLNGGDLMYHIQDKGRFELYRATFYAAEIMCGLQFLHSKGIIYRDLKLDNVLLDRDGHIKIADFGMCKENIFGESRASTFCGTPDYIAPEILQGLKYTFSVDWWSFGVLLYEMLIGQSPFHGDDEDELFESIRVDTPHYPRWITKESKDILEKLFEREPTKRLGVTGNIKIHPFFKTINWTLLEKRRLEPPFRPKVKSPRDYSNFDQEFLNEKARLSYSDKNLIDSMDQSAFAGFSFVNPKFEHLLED
Protocol: as §1, §2, §3

[6] = molecular target: protein kinase C beta-2 (Homo sapiens, UniProt P05771); test: PKC Enzyme assay, beta II isozyme; assay type: biochemical; conditions: PKC beta-2; 30 μM ATP, 30° C., 10 minutes; read-out: IC50 β2
Chain of protein kinase C beta-2 (P05771 1-673 isoform P05771-2): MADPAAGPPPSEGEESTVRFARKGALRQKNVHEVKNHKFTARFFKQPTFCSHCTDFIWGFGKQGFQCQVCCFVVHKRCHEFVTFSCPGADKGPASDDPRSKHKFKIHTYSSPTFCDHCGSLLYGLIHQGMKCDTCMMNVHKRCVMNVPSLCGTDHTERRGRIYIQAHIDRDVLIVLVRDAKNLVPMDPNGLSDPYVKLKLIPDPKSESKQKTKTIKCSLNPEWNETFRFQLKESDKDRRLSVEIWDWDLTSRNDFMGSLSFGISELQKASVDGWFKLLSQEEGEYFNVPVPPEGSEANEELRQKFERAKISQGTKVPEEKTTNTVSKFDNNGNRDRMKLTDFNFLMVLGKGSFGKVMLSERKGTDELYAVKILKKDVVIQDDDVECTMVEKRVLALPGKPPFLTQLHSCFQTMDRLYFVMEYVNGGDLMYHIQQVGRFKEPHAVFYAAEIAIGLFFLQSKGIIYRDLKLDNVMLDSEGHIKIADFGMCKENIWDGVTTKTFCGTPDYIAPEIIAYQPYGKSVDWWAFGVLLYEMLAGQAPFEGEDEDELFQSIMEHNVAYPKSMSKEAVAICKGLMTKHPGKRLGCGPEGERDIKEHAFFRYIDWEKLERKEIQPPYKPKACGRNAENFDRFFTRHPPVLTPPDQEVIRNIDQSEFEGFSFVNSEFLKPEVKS
Protocol: as §1, §2, §3

[7] = molecular target: protein kinase C beta-1 (Homo sapiens, UniProt P05771); test: PKC Enzyme assay, beta I isozyme; assay type: biochemical
Chain of protein kinase C beta-1 (P05771 whole entry): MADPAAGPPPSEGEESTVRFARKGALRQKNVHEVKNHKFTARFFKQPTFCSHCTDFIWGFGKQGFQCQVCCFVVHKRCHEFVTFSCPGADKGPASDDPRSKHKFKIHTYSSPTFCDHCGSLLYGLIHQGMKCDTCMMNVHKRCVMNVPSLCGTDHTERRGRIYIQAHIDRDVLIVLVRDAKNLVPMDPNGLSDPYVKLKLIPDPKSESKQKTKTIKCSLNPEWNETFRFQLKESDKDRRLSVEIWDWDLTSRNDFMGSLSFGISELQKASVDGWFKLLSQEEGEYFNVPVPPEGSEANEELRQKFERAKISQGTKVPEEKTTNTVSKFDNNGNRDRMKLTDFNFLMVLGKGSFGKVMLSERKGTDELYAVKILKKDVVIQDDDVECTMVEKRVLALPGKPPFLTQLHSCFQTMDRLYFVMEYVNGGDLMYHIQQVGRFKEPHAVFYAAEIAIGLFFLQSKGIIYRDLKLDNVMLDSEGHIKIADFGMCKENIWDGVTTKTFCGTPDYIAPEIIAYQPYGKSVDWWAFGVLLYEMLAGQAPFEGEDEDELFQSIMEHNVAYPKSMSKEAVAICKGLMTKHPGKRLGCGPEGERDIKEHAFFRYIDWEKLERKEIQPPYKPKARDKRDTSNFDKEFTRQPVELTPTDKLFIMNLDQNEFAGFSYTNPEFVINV
Protocol: as §1, §2, §3

[8] = molecular target: protein kinase C gamma (Homo sapiens, UniProt P05129); test: PKC Enzyme assay, gamma isozyme; assay type: biochemical
Protocol: as §1, §2, §3

[9] = PKC alpha, 30 μM ATP, 30° C., 10 minutes, read-out: IC50 α
[10] = PKC epsilon, 30 μM ATP, 30° C., 10 minutes, read-out: IC50 ε
[11] = PKC zeta, 30 μM ATP, 30° C., 10 minutes, read-out: IC50 ζ
[12] = PKC delta, 30 μM ATP, 30° C., 10 minutes, read-out: IC50 δ
[13] = PKC beta-1, 30 μM ATP, 30° C., 10 minutes, read-out: IC50 β1
[14] = PKC gamma, 30 μM ATP, 30° C., 10 minutes, read-out: IC50 γ

SMILES | IC50 [1, 9] | IC50 [2] | IC50 [3, 10] | IC50 [4, 11] | IC50 [5, 12] | IC50 [6] | IC50 [7, 13] | IC50 [8, 14] | IC50 [1] | IC50 [3] | IC50 [4] | IC50 [5] | IC50 [7] | IC50 [8]
Cn1cc(C2=C(c3cn(C4CN(C(c5ccccc5)c5ccccc5)C4)c4ccccc34)C(=O)NC2=O)c2ccccc21 [Example 72, 3-[1-(Benzhydryl-azetidin-3-yl)-indol-3-yl)-4-(1-methyl-indol-3-yl)-1H-pyrrole-2,5-dione] | > 100000 nM | 42 nM | > 100000 nM | 49000 nM | > 100000 nM | 2700 nM | 9100 nM | 90000 nM |  |  |  |  |  | 
O=C1NC(=O)C(c2cn(C3CCNCC3)c3ccccc23)=C1c1c[nH]c2ccccc12 [Example 50] | 300 nM | 100 nM | 500 nM | 3000 nM | 500 nM | 20 nM | 30 nM | 600 nM |  |  |  |  |  | 
Cn1cc(C2=C(c3c4n(c5ccccc35)CCC(CO)(CO)C4)C(=O)NC2=O)c2ccccc21 [Example 2, 3-[8,8-bis(hydroxymethylene)-6,7,8,9-tetrahydropyrido[1,2-a]indol-10-yl]-4-(1-methyl-3-indolyl)-1H-pyrrole-2,5-dione] | 3500 nM | 5700 nM | 31800 nM | 33000 nM | 6800 nM | 60 nM | 70 nM | 8800 nM |  |  |  |  |  | 
Cn1cc(C2=C(c3cn(C4CCN(Cc5ccccc5)CC4)c4ccccc34)C(=O)NC2=O)c2ccccc21 [Example 47] |  | 500 nM |  |  |  | 50 nM |  |  | 1000 nM | 3000 nM | 52000 nM | 2000 nM | 100 nM | 4000 nM
CN1CCC(n2cc(C3=C(c4c[nH]c5ccccc45)C(=O)NC3=O)c3ccccc32)CC1 [Example 51] | 200 nM | 40 nM | 50 nM | 5000 nM | 400 nM | 10 nM | 20 nM | 500 nM |  |  |  |  |  | 

The next lines start with results.

IC50 [1, 9] | IC50 [2] | IC50 [3, 10] | IC50 [4, 11] | IC50 [5, 12] | IC50 [6] | IC50 [7, 13] | IC50 [8, 14] | SMILES | IC50 [1] | IC50 [3] | IC50 [4] | IC50 [5] | IC50 [7] | IC50 [8]
3600 nM | 750 nM | 20000 nM | 20000 nM | 3200 nM | 41 nM | 160 nM | 4800 nM | Cn1cc(C2=C(c3cn(CCOC4C[C@H](N=[N+]=[N-])[C@@H](CO)O4)c4ccccc34)C(=O)NC2=O)c2ccccc21 (some centres unmarked) [Example 61] |  |  |  |  |  | 
3300 nM | 1400 nM | 70000 nM | 37000 nM | 3200 nM | 190 nM | 320 nM | 3000 nM | CC(=O)NCC1OC(OCCCCn2cc(C3=C(c4cn(C)c5ccccc45)C(=O)N(C(C)=O)C3=O)c3ccccc32)CC1OC(C)=O (centres unmarked) [Example 70] |  |  |  |  |  | 
160 nM | 40 nM | 800 nM | 50000 nM | 160 nM | 5 nM | 5 nM | 280 nM | Cn1cc(C2=C(c3cn(C4CCOC4)c4ccccc34)C(=O)NC2=O)c2ccccc21 (centres unmarked) [Example 64] |  |  |  |  |  | 
4400 nM | 2600 nM | 42000 nM | 41000 nM | 3900 nM | 100 nM | 200 nM | 5200 nM | Cn1cc(C2=C(c3cn(CCOC4C[C@@H](N=[N+]=[N-])[C@@H](CO)O4)c4ccccc34)C(=O)NC2=O)c2ccccc21 (some centres unmarked) [Example 62] |  |  |  |  |  | 
6500 nM | 3100 nM | > 100000 nM | > 100000 nM | 7300 nM | 210 nM | 390 nM | 8200 nM | CCOC(=O)N1CCC(Cn2cc(C3=C(c4cn(C)c5ccccc45)C(=O)NC3=O)c3ccccc32)CC1 [Example 69, 3-[1-(1N-ethycarbomate-piperidin-4-yl-methylene)-indol-3-yl]-4-[1-methyindol-3-yl]-1H-pyrrole-2,5-dione] |  |  |  |  |  | 
270 nM | 400 nM | 3800 nM | 9260 nM | 440 nM | 6.1 nM | 14 nM | 1500 nM | Cn1cc(C2=C(c3c4n(c5ccccc35)CCC(CO)C4)C(=O)NC2=O)c2ccccc21 (centres unmarked) [Example 9, 3-[8-(Hydroxymethyl)-6,7,8,9-tetrahydropyrido[1,2-a]indol-10-yl]-4-(1-methyl-3-indolyl)-1H-pyrrole-2,5 dione] |  |  |  |  |  | 
1700 nM | 140 nM | 3600 nM | 50000 nM | 1600 nM | 49 nM | 130 nM | 4000 nM | Cn1cc(C2=C(c3cn(CCOC4C[C@H](N)[C@@H](CO)O4)c4ccccc34)C(=O)NC2=O)c2ccccc21 (some centres unmarked) [Example 63] |  |  |  |  |  | 
1000 nM | 2000 nM | 400 nM | > 100000 nM | 3000 nM | 50 nM | 50 nM | 5000 nM | CCOC(=O)CN1CCC(n2cc(C3=C(c4cn(C)c5ccccc45)C(=O)NC3=O)c3ccccc32)CC1 [Example 38] |  |  |  |  |  | 

From patent US5668152A, “Protein kinase C inhibitors” (priority 1995, dated 1997)
